# Reference: patent US10633389B2, “CARM1 inhibitors and uses thereof” (Epizyme, Inc., priority 2013, dated 2020)
# Legend:
# [1] = test system: NCI-H929 cells; test: Human myeloma cell line 14-day proliferation assay, NCI-H929; type: cell-based; settings: NCI-H929 Human Multiple Myeloma cell line, varying doses, 14-day proliferation assay (FIG. 1A)
# Description: (§1) FIGS. 1A and 1B show cell proliferation in response to the presence of compounds of the current invention. Human Multiple Myeloma cell lines NCI-H929 (FIG. 1A) and U266B1 (FIG. 1B) were treated with varying doses of 304-1a (medium grey data points), 23-3 (light grey data points), and 113-3 (black data points) in a 14-day proliferation assay. At the end of the experiment, total cell number was determined for each cell line for different doses of 304-1a, 23-3, and 113-3.
# as §1, with “Human” for “FIGS. 1A and 1B show cell proliferation in response to the presence of compounds of the current invention. Human”
# [2] = test system: U266B1 cells; test: Human myeloma cell line 14-day proliferation assay, U266B1; type: cell-based; settings: U266B1 Human Multiple Myeloma cell line, varying doses, 14-day proliferation assay (FIG. 1B)
# Description: as §1
# as §1, with “Human” for “FIGS. 1A and 1B show cell proliferation in response to the presence of compounds of the current invention. Human”
# [3] = test system: asymmetric di-methyl PABP1 in RKO cells; test: RKO methylation assay, In Cell Western (ICW) for asymmetric di-methyl PABP1; type: cell-based; settings: Cellular potencies, ICW PABP1me2a
# Summary of the method: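 In-cell Western on fixed RKO cells after 48 h compound exposure: anti-asymmetric di-methyl PABP1 signal at 800 nm over DRAQ5 DNA signal at 700 nm. Percent inhibition set between DMSO wells and wells with 20 μM reference compound; IC50 curves fitted in triplicate.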
# [4] = target: human CARM1 (PRMT4) (Homo sapiens (Human), UniProt Q86X55); test: CARM1 enzyme assay on peptide substrate (3H-SAM Flashplate); settings: Biochemical potencies, read-out: Biochem IC50
# human CARM1 (PRMT4), sequence (Q86X55 other isoform, or with tags, fused parts or gaps isoform Q86X55-1): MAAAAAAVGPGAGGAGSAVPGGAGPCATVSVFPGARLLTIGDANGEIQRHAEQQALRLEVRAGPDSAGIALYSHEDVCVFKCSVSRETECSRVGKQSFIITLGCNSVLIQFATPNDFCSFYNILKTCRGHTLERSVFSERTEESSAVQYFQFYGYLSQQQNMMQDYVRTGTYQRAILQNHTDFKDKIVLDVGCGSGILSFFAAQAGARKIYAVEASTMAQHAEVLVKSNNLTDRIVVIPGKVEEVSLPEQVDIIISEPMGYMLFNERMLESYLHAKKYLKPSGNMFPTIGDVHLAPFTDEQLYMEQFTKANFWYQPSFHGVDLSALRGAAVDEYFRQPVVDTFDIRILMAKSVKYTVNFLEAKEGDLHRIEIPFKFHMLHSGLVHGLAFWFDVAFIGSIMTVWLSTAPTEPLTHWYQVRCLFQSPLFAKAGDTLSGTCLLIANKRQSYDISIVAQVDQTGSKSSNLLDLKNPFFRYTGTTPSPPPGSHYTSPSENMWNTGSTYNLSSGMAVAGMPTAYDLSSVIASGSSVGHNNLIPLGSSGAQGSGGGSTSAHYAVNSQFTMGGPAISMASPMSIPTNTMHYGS
"IC50 ([3]; Homo sapiens, RKO) [nM]",IC50 [4] [nM],IC50 [3] [nM],Structure (SMILES),cell proliferation (total cell number) [1],cell proliferation (total cell number) [2]
< 5000,,,CCOC(=O)N1CCOC[C@@H]1CNc1nc(-c2cc(OC[C@H](O)CNC)ccc2Cl)nc(-c2c(C)noc2C)c1C [Example 23-3],decreased the proliferation,decreased the proliferation
< 5000,,,CNC[C@@H](O)COc1ccc(Cl)c(-c2nc(-c3c(C)noc3C)c(C)c(N3Cc4cccnc4C3)n2)c1 [Example 113-3],decreased the proliferation,decreased the proliferation
< 5000,,,CNC[C@@H](O)COc1ccc(Cl)c(-c2nc(NC3CCN(C(=O)OC)CC3)c(Cl)c(-c3c(C)noc3C)n2)c1 [Example 304-1a],decreased the proliferation,decreased the proliferation
≥ 20000,1000 to 3000,,CNCC(O)COc1cccc(-c2nc(NC3CCOCC3)cc(-c3ccnc(OC)c3)n2)c1 (stereo not shown) [Example 653-1a],,
≥ 20000,100 to 1000,,CNCC(O)COc1cccc(-c2nc(NC3CCOCC3)cc(-c3ccc(C(F)(F)F)nc3)n2)c1 (stereo not shown) [Example 654-1a],,
≥ 20000,100 to 1000,,CNCC(O)COc1cccc(-c2nc(NC3CCOCC3)cc(-c3cncnc3)n2)c1 (stereo not shown) [Example 655-1a],,
≥ 20000,100 to 1000,,CNCC(O)COc1cccc(-c2nc(NC3CCOCC3)cc(-c3ccc(S(C)(=O)=O)cc3)n2)c1 (stereo not shown) [Example 656-1a],,
≥ 20000,100 to 1000,,CNCC(O)COc1cccc(-c2nc(NCCOC)cc(-c3cncnc3)n2)c1 (stereo not shown) [Example 659-1a],,
≥ 20000,1000 to 3000,,CNCC(O)COc1cccc(-c2nc(NC3CCOCC3)c(C)c(N3CCN(S(C)(=O)=O)CC3)n2)c1 (stereo not shown) [Example 660-1a],,
≥ 20000,100 to 1000,,CNCC(O)COc1cccc(-c2nc(NC3CCOCC3)c(C)c(-c3c(C)n[nH]c3C)n2)c1 (stereo not shown) [Example 661-1a],,
≥ 20000,100 to 1000,,CNCC(O)COc1cccc(-c2nc(NCC3CCNCC3)cc(-c3ccncc3)n2)c1 (stereo not shown) [Example 662-1a],,
≥ 20000,100 to 1000,,CNCC(O)COc1cccc(-c2nc(NC3CCOCC3)c(C)c(N3CCN(C4CC4)CC3)n2)c1 (stereo not shown) [Example 663-1a],,
≥ 20000,100 to 1000,,CNCC(O)COc1cccc(-c2nc(NC3CCOCC3)c(C)c(N3CCNC(C)(C)C3)n2)c1 (stereo not shown) [Example 664-1a],,
≥ 20000,100 to 1000,,CNCC(O)COc1cccc(-c2nc(NC3CCNCC3)cc(-c3ccncc3)n2)c1 (stereo not shown) [Example 666-1a],,
≥ 20000,100 to 1000,,CNCC(O)COc1cccc(-c2nc(NCCOC)cc(C3=CCCC3)n2)c1 (stereo not shown) [Example 667-1a],,
≥ 20000,100 to 1000,,CCS(=O)(=O)N1CCN(c2nc(-c3cccc(OCC(O)CNC)c3)nc(NC3CCOCC3)c2C)CC1 (stereo not shown) [Example 668-1a],,

"IC50 ([3]; Homo sapiens, RKO) [nM]",IC50 [4] [nM],IC50 [3] [nM],Structure (SMILES),cell proliferation (total cell number) [1],cell proliferation (total cell number) [2]
≥ 20000,100 to 1000,,CNCC(O)COc1cccc(-c2nc(NC3CCOCC3)cc(-c3c(C)n[nH]c3C)n2)c1 (stereo not shown) [Example 670-1a],,
≥ 20000,100 to 1000,,CNCC(O)COc1cccc(-c2nc(-c3ccncc3)cc(N(C)C3CCN(C(C)=O)CC3)n2)c1 (stereo not shown) [Example 671-1a],,
,100 to 1000,10000 to 20000,CNCC(O)COc1cccc(-c2nc(N[C@H]3CO[C@H]4OCC[C@H]43)cc(N3CCOCC3)n2)c1 (stereo partly shown) [Example 672-1a],,
,100 to 1000,10000 to 20000,CNCC(O)COc1cccc(-c2nc(N[C@H]3CO[C@H]4OCC[C@H]43)c(C)c(N3CCOCC3)n2)c1 (stereo partly shown) [Example 673-1a],,
≥ 20000,100 to 1000,,CNCC(O)COc1cccc(-c2nc(NC3CCOCC3)cc(-c3c(C)nn(C)c3C)n2)c1 (stereo not shown) [Example 675-1a],,
≥ 20000,1000 to 3000,,CCNc1nc(-c2cccc(OCC(O)CNC)c2)nc(NC2CCOCC2)c1C (stereo not shown) [Example 676-1a],,
≥ 20000,100 to 1000,,CNCC(O)COc1cccc(-c2nc(NC3CCOCC3)c(C)c(-c3c(C)nn(C)c3C)n2)c1 (stereo not shown) [Example 678-1a],,
≥ 20000,1000 to 3000,,CNCC(O)COc1cccc(-c2nc(N[C@@H]3CC[C@@H](O)C3)c(C)c(N3CCOCC3)n2)c1 (stereo partly shown) [Example 679-1a],,
≥ 20000,100 to 1000,,CNCC(O)COc1cccc(-c2nc(N[C@@H]3CC[C@H](C(=O)NC)C3)c(C)c(N3CCOCC3)n2)c1 (stereo partly shown) [Example 680-1a],,
≥ 20000,1000 to 3000,,CNCC(O)COc1cccc(-c2nc(N[C@@H]3CC[C@H](C(=O)N4CCOCC4)C3)c(C)c(N3CCOCC3)n2)c1 (stereo partly shown) [Example 681-1a],,
≥ 20000,100 to 1000,,CNCC(O)COc1cccc(-c2nc(NC3CCCC3)c(C)c(N3CCOCC3)n2)c1 (stereo not shown) [Example 683-1a],,
≥ 20000,1000 to 3000,,CNCC(O)COc1cccc(-c2nc(NC3(C)CCOCC3)cc(N3CCOCC3)n2)c1 (stereo not shown) [Example 684-1a],,
≥ 20000,1000 to 3000,,CNCC(O)COc1cccc(-c2nc(NCCCN3CCCCCC3=O)cc(N3CCOCC3)n2)c1 (stereo not shown) [Example 685-1a],,
≥ 20000,100 to 1000,,CNC[C@@H](O)COc1cccc(-c2nc(NCC3CCOCC3)cc(-c3cn(S(C)(=O)=O)c4ncncc34)n2)c1 [Example 686-1a],,
≥ 20000,100 to 1000,,CNCC(O)COc1cccc(-c2nc(N[C@@H]3CC[C@H](O)C3)c(C)c(N3CCOCC3)n2)c1 (stereo partly shown) [Example 687-1a],,

Structure (SMILES),"IC50 ([3]; Homo sapiens, RKO) [nM]",IC50 [4] [nM],IC50 [3] [nM],cell proliferation (total cell number) [1],cell proliferation (total cell number) [2]
CNCC(O)COc1cccc(-c2nc(-c3ccncc3)cc(N(C)C3CCN(C)CC3)n2)c1 (stereo not shown) [Example 674-1a],≥ 20000,100 to 1000,,,
